Source: patent US20240124450A1, “Novel SIK Inhibitors” (Pfizer Inc., priority 2022, published 2024)

Experiments:
SIK2 = SIK2 (Homo sapiens (Human), UniProt Q9H0K1); assay: Pan SIK MS IC50 enzyme assay (SIK2); format: biochemical; details: 1 mM ATP, substrate peptide AQT0252, LCMS/MS detection
Description: (§1) Enzyme Assay: Pan SIK MS IC50 Assay
(§2) Salt Induced Kinase (SIK) activity is determined by measuring the effect of a test agent on the activity of the appropriate SIK enzyme to phosphorylate its corresponding substrate. […] The phosphorylated substrate product resulting from the kinase reaction is detected by LCMS/MS, and the area under the peak curve correlates with kinase activity. […] The plates are spun at 1000 rpm for 30 seconds to ensure compounds are at the bottom of the well before removing foil covers. 0.15 μL HPE (assay std) and ZPE (DMSO) are added to the ARP using an HP D300 dispenser. Plates are spun again at 1000 rpm for 30 seconds. […] Plates are spun at 1000 rpm for 30 seconds. Plates are then sealed and incubated at RT for 10 minutes. Following incubation, 5 μL of 5× peptide reagent is added with a Multidrop Combi and designated small volume cassette to initiate the kinase reaction. Plates are spun at 1000 rpm for 30 seconds. Plates are then sealed and incubated at RT for 90 minutes. The assay is stopped by the addition of 5 μl of 120 mM EDTA added with a Multidrop Combi and designated small volume cassette (20 mM final concentration). Plates are spun at 1000 rpm for 30 seconds. 10 μl of the final reaction mix from each of the three individual enzyme plates are transferred by a Platemate Plus to the same corresponding 96 well deepwell plate containing 70 μl Water/Methanol (85/15%) for multiplex MS detection ([…]). Using Activity Base (ABase), an idbs data analysis software tool, the reported area ratio unit data is associated to compound, batch and dose information, the data is evaluated for quality, and the percent inhibition of each well is calculated. The data from each Max effect/HPE and Min effect/ZPE control wells are assessed, and outliers are excluded from all further calculations. The mean and standard deviation of the HPE and ZPE are then calculated for each plate, along with the Z Prime. The compound data is converted into % effect, using the average ZPE and HPE controls as 0% and 100% activity, respectively.

[1] = tested on: IL10 release from human monocyte derived macrophages stimulated with LPS; assay: SIK macrophage cytokine assay, increase of IL10 release; format: cell-based; details: Macrophage, 1 ng/mL LPS, 4 hours, HTRF
Description: (§3) Cytokine Assays: SIK Macrophage Assay Cytokine activity is determined by measuring the effect of a test agent on the inhibitory release of the cytokine TNFα and the increasing release of the cytokine IL10 from human monocyte derived macrophages (human macrophages) stimulated with lipopolysaccharide (LPS). At the time of assay, human macrophages (CGPS group Pfizer Groton, CT) are removed from cryopreservation, thawed quickly at 37° C., diluted in thaw medium (OptiMEM—Gibco medium, 10% heat inactivated fetal bovine serum (HIFBS)), and then centrifuged at 200×g for 10 minutes. […] After ˜60 minutes in an incubator at 37° C. in a humidified environment in 5% carbon dioxide the cells are stimulated by the addition of 5 μL of LPS (10 ng/mL; Sigma) and the assay plate is returned to an incubator at 37° C. in a humidified environment in 5% carbon dioxide for 4 hours. […] The final concentration of DMSO in the assay is approximately 0.1%. After 4 hours, the assay plate is removed from the incubator and centrifuged at 1500 rpm for 10 minutes. A portion of the resulting cell supernatant is then used to determine the amount of IL-10 and TNFα in each well. Cytokine measurements are made using human IL-10 and TNFα HTRF assay kits (Perkin Elmer) following the manufacturer's assay protocol.

SIK1 = SIK1 (Homo sapiens (Human), UniProt P57059); assay: Pan SIK MS IC50 enzyme assay (SIK1); format: biochemical; details: 1 mM ATP, substrate peptide AQT0868, LCMS/MS detection
Description: as §1, §2

SIK3 = SIK3 (Homo sapiens (Human), UniProt Q9Y2K2); assay: Pan SIK MS IC50 enzyme assay (SIK3); format: biochemical; details: 1 mM ATP, substrate peptide AQT0508, LCMS/MS detection
Description: as §1, §2

[2] = tested on: TNFα release from human monocyte derived macrophages stimulated with LPS; assay: SIK macrophage cytokine assay, inhibition of TNFα release; format: cell-based; details: Macrophage, 1 ng/mL LPS, 4 hours, HTRF, read-out: TNFa IC50
Description: as §3

Sequence of SIK2 (Q9H0K1 whole entry, species assumed): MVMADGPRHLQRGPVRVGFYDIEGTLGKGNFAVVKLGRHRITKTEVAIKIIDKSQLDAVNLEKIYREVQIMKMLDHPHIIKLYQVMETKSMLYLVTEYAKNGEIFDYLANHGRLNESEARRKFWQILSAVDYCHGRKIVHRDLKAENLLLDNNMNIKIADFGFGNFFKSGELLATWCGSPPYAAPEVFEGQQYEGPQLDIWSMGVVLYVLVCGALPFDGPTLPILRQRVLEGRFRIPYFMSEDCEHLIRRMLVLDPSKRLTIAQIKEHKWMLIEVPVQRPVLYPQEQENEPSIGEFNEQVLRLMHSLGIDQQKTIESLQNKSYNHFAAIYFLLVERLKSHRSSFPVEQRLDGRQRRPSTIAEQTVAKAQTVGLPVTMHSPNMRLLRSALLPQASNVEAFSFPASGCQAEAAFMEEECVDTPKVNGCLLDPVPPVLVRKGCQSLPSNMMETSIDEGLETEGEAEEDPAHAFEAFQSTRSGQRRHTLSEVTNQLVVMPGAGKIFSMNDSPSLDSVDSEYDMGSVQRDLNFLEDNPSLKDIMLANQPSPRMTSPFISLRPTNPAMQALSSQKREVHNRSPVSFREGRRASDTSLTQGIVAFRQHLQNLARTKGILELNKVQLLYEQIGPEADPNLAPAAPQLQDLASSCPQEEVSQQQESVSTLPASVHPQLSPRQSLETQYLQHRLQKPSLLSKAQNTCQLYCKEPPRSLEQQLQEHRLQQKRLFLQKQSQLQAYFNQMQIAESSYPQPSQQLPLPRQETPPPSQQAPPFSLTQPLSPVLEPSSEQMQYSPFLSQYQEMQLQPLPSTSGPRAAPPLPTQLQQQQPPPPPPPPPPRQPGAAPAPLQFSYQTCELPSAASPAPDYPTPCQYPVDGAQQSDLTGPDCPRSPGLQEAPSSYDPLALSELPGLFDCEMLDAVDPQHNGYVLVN
Sequence of SIK3 (Q9Y2K2 whole entry, species assumed): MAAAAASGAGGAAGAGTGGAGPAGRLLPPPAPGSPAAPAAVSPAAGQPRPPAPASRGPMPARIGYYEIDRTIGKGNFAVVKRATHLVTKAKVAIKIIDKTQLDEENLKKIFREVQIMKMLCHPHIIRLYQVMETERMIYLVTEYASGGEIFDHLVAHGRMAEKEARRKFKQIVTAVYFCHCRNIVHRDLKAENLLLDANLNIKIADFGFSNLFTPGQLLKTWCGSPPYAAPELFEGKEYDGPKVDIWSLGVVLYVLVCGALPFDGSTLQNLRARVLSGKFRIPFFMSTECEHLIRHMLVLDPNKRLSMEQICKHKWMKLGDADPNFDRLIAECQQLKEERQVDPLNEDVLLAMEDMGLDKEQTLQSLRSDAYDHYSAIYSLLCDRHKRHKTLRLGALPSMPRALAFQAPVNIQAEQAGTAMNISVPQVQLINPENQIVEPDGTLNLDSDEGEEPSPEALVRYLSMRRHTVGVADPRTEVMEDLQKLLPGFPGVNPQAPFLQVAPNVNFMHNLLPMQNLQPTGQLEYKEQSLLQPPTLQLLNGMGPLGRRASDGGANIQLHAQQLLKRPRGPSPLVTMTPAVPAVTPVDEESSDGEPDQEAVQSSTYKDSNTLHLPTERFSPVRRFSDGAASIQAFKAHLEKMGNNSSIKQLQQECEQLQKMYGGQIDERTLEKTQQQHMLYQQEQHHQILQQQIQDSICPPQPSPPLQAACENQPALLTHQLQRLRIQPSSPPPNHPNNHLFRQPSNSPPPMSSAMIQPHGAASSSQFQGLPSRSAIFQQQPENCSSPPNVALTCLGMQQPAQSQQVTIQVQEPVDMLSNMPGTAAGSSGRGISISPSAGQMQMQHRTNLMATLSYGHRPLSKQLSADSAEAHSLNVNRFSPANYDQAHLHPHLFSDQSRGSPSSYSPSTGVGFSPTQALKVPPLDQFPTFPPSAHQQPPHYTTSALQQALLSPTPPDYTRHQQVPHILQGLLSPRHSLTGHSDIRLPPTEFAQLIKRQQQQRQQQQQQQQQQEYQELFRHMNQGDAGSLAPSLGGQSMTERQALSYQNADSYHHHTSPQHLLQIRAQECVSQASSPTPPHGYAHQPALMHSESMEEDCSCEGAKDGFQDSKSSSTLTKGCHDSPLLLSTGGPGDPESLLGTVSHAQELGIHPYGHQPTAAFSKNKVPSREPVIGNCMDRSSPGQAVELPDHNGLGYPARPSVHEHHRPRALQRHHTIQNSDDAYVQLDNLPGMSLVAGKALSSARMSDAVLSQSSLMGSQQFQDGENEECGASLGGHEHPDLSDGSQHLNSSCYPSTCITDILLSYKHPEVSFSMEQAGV
Sequence of SIK1 (P57059 whole entry, species assumed): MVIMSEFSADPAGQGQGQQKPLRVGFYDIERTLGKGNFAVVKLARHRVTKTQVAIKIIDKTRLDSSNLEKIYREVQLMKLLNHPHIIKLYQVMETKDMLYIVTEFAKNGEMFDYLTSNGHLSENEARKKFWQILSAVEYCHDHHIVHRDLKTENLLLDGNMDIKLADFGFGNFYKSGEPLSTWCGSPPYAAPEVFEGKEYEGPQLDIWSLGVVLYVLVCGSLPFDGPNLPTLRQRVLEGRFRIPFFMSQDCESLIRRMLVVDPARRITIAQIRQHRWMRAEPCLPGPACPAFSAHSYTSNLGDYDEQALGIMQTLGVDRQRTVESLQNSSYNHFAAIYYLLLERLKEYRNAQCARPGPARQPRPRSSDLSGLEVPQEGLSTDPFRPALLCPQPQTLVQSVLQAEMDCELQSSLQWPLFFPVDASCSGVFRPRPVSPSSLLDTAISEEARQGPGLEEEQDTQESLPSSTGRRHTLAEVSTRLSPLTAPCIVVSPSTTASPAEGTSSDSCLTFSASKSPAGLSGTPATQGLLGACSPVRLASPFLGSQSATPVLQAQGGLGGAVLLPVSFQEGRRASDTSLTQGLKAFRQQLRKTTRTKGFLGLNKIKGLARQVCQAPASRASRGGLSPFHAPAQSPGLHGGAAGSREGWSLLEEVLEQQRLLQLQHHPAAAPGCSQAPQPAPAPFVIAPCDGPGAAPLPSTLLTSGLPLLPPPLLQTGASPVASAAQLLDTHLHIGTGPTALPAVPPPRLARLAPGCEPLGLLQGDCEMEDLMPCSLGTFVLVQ

Structure (SMILES) | IC50 (SIK2) [nM] | EC50 [1] [nM] | IC50 (SIK1) [nM] | IC50 (SIK3) [nM] | IC50 [2] [nM]
COc1ccc2ncc(-c3cc(OCC4(N)CCCC4)c(C#N)c(SC)c3)n2c1C#N [Example 39, 3-(3-((1-Aminocyclopentyl)methoxy)-4-cyano-5-(methylthio)phenyl)-6-methoxyimidazo[1,2-a]pyridine-5-carbonitrile] | 1 | 25 | 0.5 | 1.1 | 6
CSc1cc(-c2cnc3ccccn23)cc(OC[C@@]2(N)CCC(F)(F)C2)c1C#N (mixture of isomers) [Example 25, (R)-2-((1-Amino-3,3-difluorocyclopentyl)methoxy)-4-(imidazo[1,2-a]pyridin-3-yl)-6-(methylthio)benzonitrile and (S)-2-((1-amino-3,3-difluorocyclopentyl)methoxy)-4-(imidazo[1,2-a]pyridin-3-yl)-6-(methylthio)benzonitrile] | 0.9 | 177 | 2.3 | 5.3 | 15.6
CNc1ccc2ncc(-c3cc(OCC4(N)CCCC4)c(C#N)c(SC)c3)n2c1C#N [Example 53, 3-(3-((1-Aminocyclopentyl)methoxy)-4-cyano-5-(methylthio)phenyl)-6-(methylamino)imidazo[1,2-a]pyridine-5-carbonitrile] | 0.4 | 4 | 0.1 | 1.5 | 0.5
CSc1cc(-c2cnc3ccccn23)cc(OC[C@@]2(N)CCC[C@@H](C(F)(F)F)C2)c1C#N (racemic) [Example 33A, 2-(((1S,3S)-1-Amino-3-(trifluoromethyl)cyclohexyl)methoxy)-4-(imidazo[1,2-a]pyridin-3-yl)-6-(methylthio)benzonitrile and 2-(((1R,3R)-1-amino-3-(trifluoromethyl)cyclohexyl)methoxy)-4-(imidazo[1,2-a]pyridin-3-yl)-6-(methylthio)benzonitrile] | 1 | 34 | 0.6 | 2.2 | 13.9
COc1ccc2ncc(-c3cc(OCC4(N)CCCCC4)c(C#N)c(SC)c3)n2c1C#N [Example 49, 3-(3-((1-Aminocyclohexyl)methoxy)-4-cyano-5-(methylthio)phenyl)-6-methoxyimidazo[1,2-a]pyridine-5-carbonitrile] | 0.7 | 18 | 0.9 | 2.4 | 6.5
